The test system of one test is p-EGFR, p-AKT, p-ERK1/2. As to the kind of experiment: Western blot EGFR signaling pathway, A549. The class given is cell-based, human. Conditions: A549, 0.5, 1.0, 1.5 μM, 24 h, EGF 50 ng/ml. How it is done: A549 cells, H460 cells and HUVECs were treated with different concentrations of compound L14e for 24 h. Primary antibodies (100 μL/cm^2): P53(10442-1-AP, Proteintech Group),caspase-3 (19677-1-AP, Proteintech Group), bax (50599-2-lg, Proteintech Group), bcl-2 (12789-1-AP, Proteintech Group), cleaved caspase-3 (25546-1-AP, Proteintech Group), β-actin (60008-1-lg, Proteintech Group), EGFR (ab21074, Abcam), AKT (#2920, Cell Signaling Technology), ERK1/2 (#4370, Cell Signaling Technology), VEGFR-2 (#9698, Cell Signaling Technology), p-EGFR (ab40815, Abcam), p-AKT (#4060, Cell Signaling Technology), p-ERK1/2 (#4695, Cell Signaling Technology), p-VEGFR-2 (#3770, Cell Signaling Technology), and GAPDH (ab181603, Abcam). The cellular levels of proteins were determined by standard Western blotting. Details were given in Supplementary Materials and Methods.
A549 cells, H460 cells and HUVECs were treated with different concentrations of compound L14e for 24 h, and collected to establish their respective treatment groups. […]
Extracted proteins were separated from each other using polyacrylamide electrophoresis on a 10 % gel (Beyotime Biotechnology Company, Shanghai, China) and transferred to a polyvinylidene fluoride (PVDF) membrane. […] Gray values of protein bands were quantitatively analyzed, with the gray value of β-actin(GAPDH) band as the reference.

For the next test, the system named is LO2 cell line. Description: Selectivity index against LO2. Particulars: SI = CC50/IC50. It is filed as cell-based.
The test system of the next test is A549 cells. As to the kind of experiment: Transwell migration and wound healing, A549. It is filed as cell-based, human. Particulars: A549, 0.5, 1.0, 1.5 μM, 24 h. How it is done: Cell migration ability was measured using transwell chambers (8-μm pore size; Corning Costar, Cambridge, MA, USA). For the transwell assay, A549 and H460 cells suspended in serum-free RPMI-1640 medium containing different concentrations of L14e (0, 0.5, 1.0, and 1.5 μM) were seeded into the upper chamber. The lower chamber contained RPMI-1640 medium supplemented with 20% serum. After 24 h incubation, the filters were fixed in methanol and stained with 0.1% crystal violet. The upper faces of the filters were gently abraded, and the lower faces with cells migrated across the filters were imaged and counted under the microscope. For wound healing assays, cells were placed into 6-well plates and cultured until 100% confluence. An artificial scratch was created using a 200 μL pipette tip. Add serum-free RPMI-1640 medium containing different concentrations of drugs. At 24 h after culturing in serum-free medium, wound closure images were captured in the same field under magnification. Cell healing rates were calculated by the fraction of cell coverage across the line. These experiments were performed in triplicate and repeated three times.

The test system of another test is SGC7901 cells. Description: MTT assay SGC7901. It is filed as cell-based. Conditions: Homo sapiens, SGC-7901, 24h of treatment, mean ± SD.
A further test concerns the target BRaf kinase (Homo sapiens, UniProt P15056). Description: ADP-Glo kinase assay, BRaf. The class given is biochemical. Particulars: averages from triplicate assays. On the technique in general: ADP-Glo turns the ADP formed in a reaction into a luminescent signal.
A further test has as its system MDA-MB-231 cells. Description: MTT assay MDA-MB-231. It is filed as cell-based. Conditions: Homo sapiens, 24h of treatment, mean ± SD. Background: Formazan colour is commonly taken as a measure of viable cells.

Chain of BRaf kinase (P15056 whole entry): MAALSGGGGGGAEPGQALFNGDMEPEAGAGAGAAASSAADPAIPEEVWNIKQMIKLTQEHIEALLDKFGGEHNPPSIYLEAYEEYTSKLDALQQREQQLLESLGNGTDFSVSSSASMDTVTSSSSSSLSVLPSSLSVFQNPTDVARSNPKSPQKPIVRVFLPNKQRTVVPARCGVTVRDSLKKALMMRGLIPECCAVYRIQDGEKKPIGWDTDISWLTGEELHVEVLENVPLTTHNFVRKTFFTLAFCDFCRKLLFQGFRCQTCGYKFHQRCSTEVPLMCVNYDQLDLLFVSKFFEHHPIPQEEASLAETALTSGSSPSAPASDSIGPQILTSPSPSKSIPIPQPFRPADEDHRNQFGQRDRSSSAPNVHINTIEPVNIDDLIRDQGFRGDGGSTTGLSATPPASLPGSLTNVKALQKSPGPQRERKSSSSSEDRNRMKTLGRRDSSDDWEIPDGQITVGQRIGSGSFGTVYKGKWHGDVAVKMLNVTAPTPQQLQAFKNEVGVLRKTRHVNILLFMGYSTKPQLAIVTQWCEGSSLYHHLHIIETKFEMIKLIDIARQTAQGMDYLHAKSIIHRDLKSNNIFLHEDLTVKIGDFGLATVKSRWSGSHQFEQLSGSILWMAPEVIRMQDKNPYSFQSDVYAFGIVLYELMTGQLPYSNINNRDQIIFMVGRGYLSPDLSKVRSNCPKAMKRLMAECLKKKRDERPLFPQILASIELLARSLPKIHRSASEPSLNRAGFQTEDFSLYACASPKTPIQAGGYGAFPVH

As usually defined, the IC50 is the concentration that gives 50% inhibition. Read a low IC50 as inhibition by little substance. In the case of `O=C(Nc1cccc(Cl)c1)Nc1ccccc1NS(=O)(=O)c1c[nH]c(=O)[nH]c1=O` [Compound L14e, N'-(3-chlorophenyl)-2-(2,4-dihydroxypyrimidine-5-sulfonamido)phenyl urea], in the test on p-EGFR, p-AKT, p-ERK1/2, the “expression of phosphorylated EGFR (Tyr1068) and AKT (Ser473)” value was “significantly reduced”. For the same molecule, the “SI (Selectivity index) LO2” value with LO2 cell line amounted to 12.58. For the same molecule, the “effect on cell migration” value in the test with A549 cells was “significantly inhibited the migration”. The values for the IC50 in the test on SGC7901 cells, at BRaf kinase and in the test with MDA-MB-231 cells were 1950 ± 150 nM, 1090 nM and 2600 ± 80 nM, respectively.

The values are drawn from PMC6624297 (Cell Death & Disease, 2019).
